# Reference: patent US20250177448A1, “NEW USE OF PEG-PHOSPHOLIPID MOLECULES” (ICOAT MEDICAL AB, priority 2022, published 2025)
# How the values were obtained:
# [1] = test system: collectin-11 (CL-11); assay: Binding of lectin pathway recognition molecule to coated HUVEC after plasma exposure, flow cytometry; format: cell-based; conditions: 0.5 mg/ml, after human plasma exposure
# Method: Post analysis processing was carried out in FlowJo.
# [2] = test system: porcine kidney transplant, ischemia reperfusion injury; assay: Porcine clinical-like allogeneic survival transplantation model (CLSM); format: in vivo, pig; conditions: not shown
# From the text: During and after surgery, systemic blood was collected for up to 4 days and analyzed for creatinine, sodium, potassium and phosphate (Section for Clinical Chemistry, Uppsala University Hospital).
# These studies were approved by the Ethics Committee for Animal Experimentation, Uppsala, Sweden, Dnr C123/14. For each of these studies (SM and CLSM) five donor pigs and 10 recipient pigs of both sexes were used. All pigs were certified SPF pigs (Yorkshire×Hampshire) and bred at Lövsta University herd, SLU, Sweden. At arrival to SLU the pigs were 8 weeks old.
# For the SM study, the pigs were selected after typing for Swine Leucocyte Antigen (SLA) class 1 in the following manner: the donor pigs were obtained from two litters and not related to any of the recipients. The recipient pigs were siblings, matched in pairs according to SLA class 1 (see below). For the CLSM study, all recipient pigs were siblings and not related to the donors, but these the pigs were not SLA-typed.
# CLSM study: In this study, the retrieval of the kidney resembled the standard operative procedure of human organ procurement. Each donor was randomized to either PEG-phospholipid or HTK treatment. […]
# The recipient pigs underwent allogeneic single kidney transplantation. […] By using a urine stick the sample was analyzed for proteinurea and hematuria. […]
# [3] = test system: HLA Class I (antibody W6/32); assay: Anti-HLA antibody binding to PEG-phospholipid treated PBMCs, flow cytometry; format: cell-based; conditions: freshly isolated human PBMC
# From the text: (§1) To test the efficacy of the PEG-phospholipid (SUNBRIGHT®) PP-050CN, N-(methylpolyoxyethylene oxycarbonyl)-1,2-dipalmitoyl-sn-glycero-3-phosphoethanolamine, sodium salt, NOF Corp., Japan) to block binding of anti-HLA antibodies to HLA antigens, similar to in a potential clinical setting, we used human PBMCs from healthy donors to block the HLA antigens.
# (§2) • FITC Mouse Anti-Human HLA-ABC; Monoclonal (G46-2.6) (BD Pharmingen) cat no. 555552 • Biotin Mouse Anti-human HLA Class I antibody [W6/32] (Abcam) cat no. ab110665 • PE-streptavidin (BD Pharmingen) cat no. 554061
# (§3) PBMC was isolated from whole blood by using Cytiva™ Ficoll-Paque™ PLUS Media (Cytiva 17-1440-02) following standard protocol. In brief, whole blood was diluted in equal volume of PBS and carefully layered on top of Ficoll paque and centrifuged at 800×g for 25 mins. A cloudy layer was separated from the top of Ficoll and washed twice again with PBS.
# (§4) The cells were stained with FITC mouse anti-human HLA-ABC monoclonal antibodies and biotin mouse anti-human HLA class | antibody [W6/32] (Abcam) followed by PE-streptavidin. The stained cells were analyzed by Beckman coulter cytoflex S (Biovis, facility, IGP, Rudbeck laboratory).
# [4] = test system: HLA-ABC (antibody G46-2.6); assay: as above; format: cell-based; conditions: freshly isolated human PBMC
# From the text: as §1, §2, §3, §4
# [5] = test system: red blood cells; assay: Cell lysis of red blood cells caused by PEG-phospholipid coating; format: cell-based; conditions: at the levels able to efficiently mask surface antigens on red blood cells
# Method: In order to investigate if the PEG-phospholipid was able to protect against complement mediated lysis, RBCs were used from 13 different donors who were typed for Rh complex and ABO antigens. RBCs were isolated and preincubated with PEG-phospholipid at varying concentrations, free PEG or PBS as described above. Cells were then washed (and the supernatant stored for analysis) with PBS (800 g×5 min, RT) and incubated with human serum (where the complement system is active) for 20 minutes at 37° C. They were then spun down again (800 g×5 min) and the supernatant was collected for analysis of hemolysis. The RBCs were analyzed for complement fixation (cells were incubated for 10 min with a
# FITC-labelled anti-C3c antibody). RBCs were resuspended with PBS (1 mL) for flow cytometry measurements. […] Post analysis processing was carried out in FlowJo (BD). The supernatant was analyzed on a variable wavelength detection plate reader, Synergy HTX, for the absorbance at 540 nm. RBCs, which were lysed via osmotic stress, were run in parallel as positive controls. The background absorbance at 540 nm from PBS containing no cells was subtracted and the difference in absorbance between cells coated with PEG-phospholipid or PBS was then calculated.
substance,measurement,setting,value
"N-(methylpolyoxyethylene oxycarbonyl)-1,2-dipalmitoyl-sn-glycero-3-phosphoethanolamine [PEG-phospholipid]",binding of CL-11,[1],substantially reduced
same,"complement and coagulation markers (C3a, sC5b-9, TAT, C3b)",[2]; displaying lower values,confirmed these results
same,cytokines / systemic inflammation,[2],confirmed these results
same,binding of anti-HLA class I antibodies W6/32 to PBMCs,[3],robust inhibition
same,binding of anti-HLA class I antibodies W6/32 to PBMCs,[3]; listed as PEG-phospholipids,inhibited
same,binding of anti-HLA-ABC G46-2.6 to PBMCs,[4],robust inhibition
same,binding of anti-HLA-ABC G46-2.6 to PBMCs,[4]; listed as PEG-phospholipids,inhibited
same,cell lysis caused by the PEG-phospholipid molecules,[5],did not cause any cell lysis
